# Target: T1, Jmjd4 (Homo sapiens, UniProt Q9H9V9)
# T1 construct: recombinant from E. coli, Ni-NTA purified
# T1 sequence (Q9H9V9 1-417): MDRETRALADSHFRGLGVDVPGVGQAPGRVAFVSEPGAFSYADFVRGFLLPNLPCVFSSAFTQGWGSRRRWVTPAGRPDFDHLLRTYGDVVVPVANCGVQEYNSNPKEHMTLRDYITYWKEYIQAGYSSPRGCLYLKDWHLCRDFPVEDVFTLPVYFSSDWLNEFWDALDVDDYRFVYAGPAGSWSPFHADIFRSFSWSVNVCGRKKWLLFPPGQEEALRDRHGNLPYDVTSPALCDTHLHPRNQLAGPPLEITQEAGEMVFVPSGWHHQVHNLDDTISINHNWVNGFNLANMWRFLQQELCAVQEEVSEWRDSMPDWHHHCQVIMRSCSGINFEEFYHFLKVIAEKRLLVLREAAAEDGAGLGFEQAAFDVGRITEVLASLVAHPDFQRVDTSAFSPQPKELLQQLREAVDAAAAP
# Assay: in vitro hydroxylation of recombinant eRF1 K63
# Type: biochemical
# Conditions: eRF1 as prime substrate; Fe(II), 2OG; competitive with 2OG (stated for 2OG oxygenases in general)
compound,measurement,value
O=C(O)CNC(=O)C(=O)O [NOG],in vitro hydroxylation of recombinant eRF1 K63,"eRF1 K63 hydroxylation was significantly impaired by a 2OG competitive inhibitor (NOG, N-Oxalylglycine)"

# — paper PMC3991326, “Optimal Translational Termination Requires C4 Lysyl Hydroxylation of eRF1” (Molecular Cell, 2014)
